From ChEMBL document CHEMBL4257544, “Synthesis and biological evaluation of novel asymmetric naphthalene diimide derivatives as anticancer agents depending on ROS generation” (Medchemcomm, 2018)
pIC50: −log10 of the molar value. The source made the active and inactive calls. The rule behind the calls is not given here.

Experiments:
SMMC-7721 [1] = test: Induction of autophagy in human SMMC7721 cells assessed as vacuolization after 12 hrs; format: functional, cell-based
SMMC-7721 [2] = test: Induction of autophagy in human SMMC7721 cells assessed as autophagosome formation at 2 uM after 12 hrs by transmission electron microscopic method; format: functional, cell-based
MDA-MB-231 = test: Cytotoxicity against human MDA-MB-231 cells after 48 hrs by MTT assay; format: functional, cell-based; settings: MDA-MB-231, 48 h
HepG2 [3] = test: Antimigratory activity against human HepG2 cells treated at 1 hr post antioxidant alpha-tocopherol addition and measured after 24 hrs by scratch wound healing assay; format: functional, cell-based
SMMC-7721 [4] = test: Cytotoxicity against human SMMC7721 cells assessed as cytoplasm shrinkage after 24 hrs; format: functional, cell-based
HepG2 [5] = test: Cytotoxicity against human HepG2 cells assessed as reduction in cell volume after 24 hrs; format: functional, cell-based
HepG2 [6] = test: Induction of apoptosis in human HepG2 cells assessed as increase in cleaved PARP1 protein expression at 1 to 3 uM after 24 hrs by Western blot analysis; format: functional, cell-based
SMMC-7721 [7] = test: Induction of ROS generation in human SMMC7721 cells at 1 to 3 uM after 24 hrs by DCFH-DA staining based HCS analysis; format: functional, cell-based
HepG2 [8] = test: Downregulation of Akt phosphorylation at […] residue in human HepG2 cells at 1 to 3 uM after 24 hrs by Western blot analysis; format: functional, cell-based
HepG2 [9] = test: Induction of autophagy in human HepG2 cells assessed as vacuolization after 12 hrs; format: functional, cell-based
HepG2 [10] = test: Induction of apoptosis in human HepG2 cells after 24 hrs by Annexin V/propidium iodide staining based flow cytometry; format: functional, cell-based
HepG2 [11] = test: Downregulation of beta-catenin protein expression in human HepG2 cells treated at 1 hr post antioxidant alpha-tocopherol addition and measured after 24 hrs by Western blot analysis; format: functional, cell-based
SMMC-7721 [12] = test: Induction of autophagy in human SMMC7721 cells assessed as vacuolization at 2 uM after 12 hrs by transmission electron microscopic method; format: functional, cell-based
SMMC-7721 [13] = test: Cytotoxicity against human SMMC7721 cells after 48 hrs by MTT assay; format: functional, cell-based; settings: SMMC-7721, 48 h
MCF7 = test: Cytotoxicity against human MCF7 cells after 48 hrs by MTT assay; format: functional, cell-based; settings: MCF7, 48 h
SMMC-7721 [14] = test: Antimigratory activity against human SMMC7721 cells treated at 1 hr post antioxidant alpha-tocopherol addition and measured after 24 hrs by scratch wound healing assay; format: functional, cell-based
SMMC-7721 [15] = test: Cytotoxicity against human SMMC7721 cells after 24 hrs by MTT assay; format: functional, cell-based; settings: SMMC-7721, 24 h
HepG2 [16] = test: Induction of apoptosis in human HepG2 cells assessed as increase in cleaved PARP1 protein expression treated at 1 hr post antioxidant alpha-tocopherol addition and measured after 24 hrs by Western blot analysis; format: functional, cell-based
SMMC-7721 [17] = test: Induction of apoptosis in human SMMC7721 cells after 24 hrs by Annexin V/propidium iodide staining based flow cytometry; format: functional, cell-based
HepG2 [18] = test: Antimigratory activity against human HepG2 cells after 24 hrs by scratch wound healing assay; format: functional, cell-based
HepG2 [19] = test: Induction of autophagy in human HepG2 cells assessed as increase in LC3-2 level by Western blot analysis; format: functional, cell-based
SMMC-7721 [20] = test: Induction of apoptosis in human SMMC7721 cells assessed as increase in cleaved PARP1 protein expression treated at 1 hr post antioxidant alpha-tocopherol addition and measured after 24 hrs by Western blot analysis; format: functional, cell-based
HepG2 [21] = test: Induction of autophagy in human HepG2 cells assessed as increase in LC3-2 protein expression treated at 1 hr post antioxidant alpha-tocopherol addition and measured after 24 hrs by Western blot analysis; format: functional, cell-based
SMMC-7721 [22] = test: Induction of apoptosis in human SMMC7721 cells assessed as increase in caspase-8 activation at 1 to 3 uM after 24 hrs by Western blot analysis; format: functional, cell-based
HepG2 [23] = test: Cytotoxicity against human HepG2 cells assessed as morphological changes treated at 1 hr post antioxidant alpha-tocopherol addition and measured after 24 hrs; format: functional, cell-based
HepG2 [24] = test: Induction of apoptosis in human HepG2 cells treated at 1 hr post antioxidant alpha-tocopherol addition and measured after 24 hrs by Annexin V/propidium iodide staining based flow cytometry; format: functional, cell-based
HepG2 [25] = test: Induction of apoptosis in human HepG2 cells at 3 uM after 48 hrs by Annexin V/propidium iodide staining based flow cytometry relative to control; format: functional
SMMC-7721 [26] = test: Induction of apoptosis in human SMMC7721 cells treated at 1 hr post antioxidant alpha-tocopherol addition and measured after 24 hrs by Annexin V/propidium iodide staining based flow cytometry; format: functional, cell-based
SMMC-7721 [27] = test: Cytotoxicity against human SMMC7721 cells assessed as cell rounding after 24 hrs; format: functional, cell-based
SMMC-7721 [28] = test: Cytotoxicity against human SMMC7721 cells assessed as reduction in cell viability treated at 1 hr post antioxidant alpha-tocopherol addition by MTT assay; format: functional, cell-based
HepG2 [29] = test: Cytotoxicity against human HepG2 cells assessed as cytoplasm shrinkage after 24 hrs; format: functional, cell-based
SMMC-7721 [30] = test: Induction of ROS generation in human SMMC7721 cells at 1 to 3 uM after 24 hrs in presence of antioxidant alpha-tocopherol by DCFH-DA staining based HCS analysis; format: functional, cell-based
HepG2 [31] = test: Induction of ROS generation in human HepG2 cells at 1 to 3 uM after 24 hrs by DCFH-DA staining based HCS analysis; format: functional, cell-based
HepG2 [32] = test: Induction of apoptosis in human HepG2 cells assessed as increase in p53 protein expression treated at 1 hr post antioxidant alpha-tocopherol addition and measured after 24 hrs by Western blot analysis; format: functional, cell-based
HepG2 [33] = test: Antimigratory activity against human HepG2 cells at 1 to 3 uM after 24 hrs by crystal violet staining based transwell migration assay; format: functional, cell-based
SMMC-7721 [34] = test: Antimigratory activity against human SMMC7721 cells at 1 to 3 uM after 24 hrs by crystal violet staining based transwell migration assay; format: functional, cell-based
SMMC-7721 [35] = test: Induction of apoptosis in human SMMC7721 cells assessed as decrease in Bcl2 protein expression at 1 to 3 uM after 24 hrs by Western blot analysis; format: functional, cell-based
HepG2 [36] = test: Cytotoxicity against human HepG2 cells assessed as reduction in cell viability treated at 1 hr post antioxidant alpha-tocopherol addition by MTT assay; format: functional, cell-based
SMMC-7721 [37] = test: Cytotoxicity against human SMMC7721 cells assessed as reduction in cell viability in presence of autophagy inhibitor 3-MA by MTT assay; format: functional, cell-based
HepG2 [38] = test: Cytotoxicity against human HepG2 cells assessed as cell rounding after 24 hrs; format: functional, cell-based
SMMC-7721 [39] = test: Induction of apoptosis in human SMMC7721 cells assessed as increase in p53 protein expression at 1 to 3 uM after 24 hrs by Western blot analysis; format: functional, cell-based
SMMC-7721 [40] = test: Cytotoxicity against human SMMC7721 cells assessed as reduction in cell volume after 24 hrs; format: functional, cell-based
SMMC-7721 [41] = test: Induction of apoptosis in human SMMC7721 cells after 24 hrs by acridine orange/ethidium bromide and Hoechst 33342 staining based HCS analysis; format: functional, cell-based
SMMC-7721 [42] = test: Induction of autophagy in human SMMC7721 cells assessed as increase in LC3-2 level by Western blot analysis; format: functional, cell-based
[43] = Cytotoxicity against human QSG7701 cells after 48 hrs by MTT assay; format: cell-based; settings: QSG7701, 48 h
SMMC-7721 [44] = test: Antimigratory activity against human SMMC7721 cells after 24 hrs by scratch wound healing assay; format: functional, cell-based

Q: With `CCCCN1C(=O)c2ccc3c4c(ccc(c24)C1=O)C(=O)N(CCCN(C)C)C3=O` as the compound, how does the Activity (SMMC-7721 [1]) read?
A: Its Activity is “Active”.

Q: What about the Activity (SMMC-7721 [2]) of the same compound?
A: The Activity was “Active”.

Q: What about the pIC50 (MDA-MB-231) of the same compound?
A: Its pIC50 is 5.24.

Q: What about the Activity (HepG2 [3]) of the same compound?
A: The Activity was “inactive”.

Q: And the Activity (SMMC-7721 [4])?
A: Its Activity is “Active”.

Q: What about the Activity (HepG2 [5]) of the same compound?
A: The Activity was “Active”.

Q: What about the Activity (HepG2 [6]) of the same compound?
A: The Activity was “Active”.

Q: And the Activity (SMMC-7721 [7])?
A: Its Activity is “Active”.

Q: What about the Activity (HepG2 [8]) of the same compound?
A: Its Activity is “Active”.

Q: What about the Activity (HepG2 [9]) of the same compound?
A: The Activity was “Active”.

Q: And the Activity (HepG2 [10])?
A: The Activity was “Dose-dependent effect”.

Q: What about the Activity (HepG2 [11]) of the same compound?
A: Its Activity is “inactive”.

Q: What about the Activity (SMMC-7721 [12]) of the same compound?
A: The Activity was “Active”.

Q: And the pIC50 (SMMC-7721 [13])?
A: Its pIC50 is 5.77.

Q: What about the pIC50 (MCF7) of the same compound?
A: Its pIC50 is 5.29.

Q: And the Activity (SMMC-7721 [14])?
A: The Activity was “inactive”.

Q: And the pIC50 (SMMC-7721 [15])?
A: Its pIC50 is 5.27.

Q: What about the Activity (HepG2 [16]) of the same compound?
A: The Activity was “inactive”.

Q: What about the Activity (SMMC-7721 [17]) of the same compound?
A: Its Activity is “Dose-dependent effect”.

Q: What about the Activity (HepG2 [18]) of the same compound?
A: Its Activity is “Dose-dependent effect”.

Q: What about the Activity (HepG2 [19]) of the same compound?
A: The Activity was “Dose-dependent effect”.

Q: And the Activity (SMMC-7721 [20])?
A: The Activity was “inactive”.

Q: What about the Activity (HepG2 [21]) of the same compound?
A: Its Activity is “inactive”.

Q: And the Activity (SMMC-7721 [22])?
A: Its Activity is “Active”.

Q: What about the Activity (HepG2 [23]) of the same compound?
A: The Activity was “inactive”.

Q: And the Activity (HepG2 [24])?
A: The Activity was “inactive”.

Q: And the Activity (HepG2 [25])?
A: The Activity was 67.8%.

Q: And the Activity (SMMC-7721 [26])?
A: Its Activity is “inactive”.

Q: And the Activity (SMMC-7721 [27])?
A: The Activity was “Active”.

Q: And the Activity (SMMC-7721 [28])?
A: Its Activity is “inactive”.

Q: What about the Activity (HepG2 [29]) of the same compound?
A: Its Activity is “Active”.

Q: What about the Activity (SMMC-7721 [30]) of the same compound?
A: Its Activity is “inactive”.

Q: What about the Activity (HepG2 [31]) of the same compound?
A: The Activity was “Active”.

Q: And the Activity (HepG2 [32])?
A: The Activity was “inactive”.

Q: And the Activity (HepG2 [33])?
A: Its Activity is “Active”.

Q: And the Activity (SMMC-7721 [34])?
A: Its Activity is “Active”.

Q: What about the Activity (SMMC-7721 [35]) of the same compound?
A: Its Activity is “Active”.

Q: And the Activity (HepG2 [36])?
A: Its Activity is “inactive”.

Q: What about the Activity (SMMC-7721 [37]) of the same compound?
A: Its Activity is “inactive”.

Q: And the Activity (HepG2 [38])?
A: Its Activity is “Active”.

Q: What about the Activity (SMMC-7721 [39]) of the same compound?
A: The Activity was “Active”.

Q: And the Activity (SMMC-7721 [40])?
A: Its Activity is “Active”.

Q: What about the Activity (SMMC-7721 [41]) of the same compound?
A: Its Activity is “Dose-dependent effect”.

Q: And the Activity (SMMC-7721 [42])?
A: The Activity was “Dose-dependent effect”.

Q: What about the pIC50 [43] of the same compound?
A: Its pIC50 is 5.15.

Q: And the Activity (SMMC-7721 [44])?
A: Its Activity is “Dose-dependent effect”.
